Laboratory results: patent publication US20240018136A1, “CDK Inhibitors And Their Use As Pharmaceuticals” (Prelude Therapeutics, Incorporated, priority 2022, published 2024)

Legend:
[1] = molecular target: T1, CDK4/Cyclin D1 (Homo sapiens, UniProt P11802); assay: CDK4/CyclinD1 enzymatic activity assay (TR-FRET); type: biochemical; conditions: ATP 2 mM final, read-out: CDK4_D1 IC50
T1 construct: purchased ProQinase; host or cells: insect cell
Experimental: CDK4/CyclinD1 Enzymatic Activity Assay
(§1) The inhibitory activity of compounds was evaluated in vitro using TR-FRET assay with white 384-well low volume microplate (Greiner Bio-One). CDK4/Cyclin D1 catalyzed phosphorylation of peptide in the presence and absence of compounds was measured and used in IC5 determination. Recombinant protein complex CDK4/Cyclin D1, expressed from insect cell, was purchased from ProQinase. Testing compounds were dissolved in DMSO at 1 mM and tested in 9-dose IC50 mode. The reaction mixture was prepared by mixing CDK4/CyclinD1 (1 nM final), ULight-4E-BP1 (100 nM final, Perkinelmer, TRF0128-D), and ATP (2 mM final) in assay buffer (20 mM of HEPES pH 7.4, 1 mM of EGTA, 0.05% BSA, 0.005% Tween 20, and 1 mM TCEP). The compound of interest in DMSO was added to each well in 3-fold serial dilution by dispenser (TECAN D300E) to make a 9.9 μL of reaction mixture. After 20 minutes preincubation at room temperature, 0.1 μL MgCl2 (10 mM final) was added to initiate the reaction. Following a 45 minute incubation at 37° C., the reaction was stopped by addition of 2 μL of quenching buffer consisting of Lance detection buffer (Perkinelmer CR97-100C), LANCE Ultra Europium-anti-P-4E-BP1 (Perkinelmer, TRF0216-D), EDTA, and incubate at room temperature for an additional 60 minutes in the dark. The reaction signal was measured by Envision multimode plate reader (PerkinElmer, 2102-0010). IC50 values were determined by fitting the data to the standard 4 parameters with Hill Slope using GraphPad Prism software.

[2] = tested on: OVCAR3 p-RB; assay: pRB ICW assay in OVCAR3 cells; type: cell-based; conditions: Homo sapiens, OVCAR-3, incubated with compound for 2 hours
Experimental: pRB ICW Assay in OVCAR3 Cells
OVCAR3 cells were maintained in RPMI (Corning, Catalog #: 10-040-CV) supplemented with 10% v/v FBS (Gibco, Catalog #: 26140-079), 1% v/v Penicillin Streptomycin (Gibco, Catalog #15140-122.) OVCAR3 cells grown at log phase were trypsinized, counted, and resuspended in fresh medium to reach a final density of 6.7e4 cells/mL and 75 μL of culture were dispensed into a 384-well plate (Falcon, cat #353962) using Multidrop Combi dispenser (Thermo Scientific). The next day, compounds were dispensed as a 9-point, ½ log serial dilution using a Tecan digital dispenser (D300e), and cells were incubated with compound for 2 hours in a humidified incubator at 37° C. A reference compound at a final concentration of 10 μM was used as a control for maximum inhibition. Each compound was tested in duplicates in each experiment. At the end of the incubation, 25 μL of 16% paraformaldehyde (Electron Microscopy, cat #15710) was slowly added to each well and the plate was incubated at room temperature (RT) for 30 minutes to fix cells. Cells were then permeabilized by incubating with 50 μL/well of wash buffer (lx PBS with 0.1% Triton X-100) 5×5 minutes, followed by 1 hour blocking with 30 μL/well of Odyssey blocking buffer (Li-COR, cat #927-40000), all at RT. Anti-phosphor RB antibody (Cell signaling 8516S) was diluted 1:1000 in Odyssey blocking buffer and 20 μL was added to all wells and incubated overnight in 4° C. with gently rocking. The next day, cells were washed 5×5 min with 50 μL/well of wash buffer, followed with 1 hour incubation with secondary antibody and DRAQ5 diluted in Odyssey blocking buffer (1:500 dilution for secondary antibody and 1:2000 dilution for DRAQ5), 5×5 min washes, and one last wash with water. Plates were dried in 37° C. oven for 5 min and scanned using Li-COR Odyssey CLx imaging system to acquire intensities at 700 and 800 nm channels.

[3] = molecular target: CDK2/Cyclin E2 (Homo sapiens, UniProt P24941); assay: CDK2/CyclinE2 enzymatic activity assay (TR-FRET); type: biochemical; conditions: ATP 1 mM final, read-out: CDK2_E1 IC50
Experimental: CDK2/CyclinE2 Enzymatic Activity Assay
as §1, with “Bio-One). CDK2/Cyclin E2” for “Bio-One). CDK4/Cyclin D1”, “in IC50” for “in IC5”, “complex CDK2/Cyclin E2,” for “complex CDK4/Cyclin D1,”, “mixing CDK2/CyclinE2” for “mixing CDK4/CyclinD1”, “ULight-4E-BP1 (50” for “ULight-4E-BP1 (100”, “ATP (1” for “ATP (2”

T1 sequence (P11802 whole entry): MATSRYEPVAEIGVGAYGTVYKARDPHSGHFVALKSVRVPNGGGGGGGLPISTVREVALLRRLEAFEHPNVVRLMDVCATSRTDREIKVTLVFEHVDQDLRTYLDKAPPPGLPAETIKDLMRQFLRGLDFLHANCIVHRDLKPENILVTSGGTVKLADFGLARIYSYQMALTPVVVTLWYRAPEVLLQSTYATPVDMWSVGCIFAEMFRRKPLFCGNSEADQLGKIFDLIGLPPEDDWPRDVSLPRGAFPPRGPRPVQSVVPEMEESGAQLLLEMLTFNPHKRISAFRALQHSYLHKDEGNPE
T1 sequence (P24385 whole entry partner): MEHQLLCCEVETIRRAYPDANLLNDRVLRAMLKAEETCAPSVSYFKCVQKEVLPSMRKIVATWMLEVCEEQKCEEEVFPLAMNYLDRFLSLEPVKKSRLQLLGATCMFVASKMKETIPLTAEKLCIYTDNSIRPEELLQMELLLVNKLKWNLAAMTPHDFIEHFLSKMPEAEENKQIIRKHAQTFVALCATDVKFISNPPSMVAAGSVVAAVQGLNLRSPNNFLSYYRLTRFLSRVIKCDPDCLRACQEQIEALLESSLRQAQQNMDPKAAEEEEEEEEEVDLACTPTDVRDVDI

SMILES | IC50 [1] [nM] | IC50 [2] [nM] | IC50 [3] [nM]
[2H]C([2H])([2H])Nc1ncc(-c2nc(NC3CCN(S(C)(=O)=O)CC3)ncc2C(F)(F)F)s1 [Example 39, 5-[2-[(1-Methylsulfonylpiperidin-4-yl)amino]-5-(trifluoromethyl)pyrimidin-4-yl]-N-(trideuteriomethyl)-1,3-thiazol-2-amine] | ≤ 100 | 100 to 1000 | ≤ 100
CS(=O)(=O)N1CCC(Nc2ncc(C(F)(F)F)c(-c3cnc(NCCF)s3)n2)CC1 [Example 40, N-(2-Fluoroethyl)-5-[2-[(1-methylsulfonylpiperidin-4-yl)amino]-5-(trifluoromethyl)pyrimidin-4-yl]-1,3-thiazol-2-amine] | ≤ 100 | 100 to 1000 | ≤ 100
CC(C)Nc1ncc(-c2nc(NC3CCN(S(C)(=O)=O)CC3)ncc2C(F)(F)F)s1 [Example 41, 5-[2-[(1-Methylsulfonylpiperidin-4-yl)amino]-5-(trifluoromethyl)pyrimidin-4-yl]-N-propan-2-yl-1,3-thiazol-2-amine] | ≤ 100 | 100 to 1000 | ≤ 100
CS(=O)(=O)N1CCC(Nc2ncc(C(F)(F)F)c(-c3cnc(C(F)F)s3)n2)CC1 [Example 42, 4-[2-(Difluoromethyl)-1,3-thiazol-5-yl]-N-(1-methylsulfonylpiperidin-4-yl)-5-(trifluoromethyl)pyrimidin-2-amine] | 100 to 1000 | > 1000 | ≤ 100
CS(=O)(=O)N1CCC(Nc2ncc(C(F)(F)F)c(-c3cnc(O[C@@H]4CCC[C@H]4O)s3)n2)CC1 [Example 44, (1R,2R)-2-((5-(2-((1-(Methylsulfonyl)piperidin-4-yl)amino)-5-(trifluoromethyl)pyrimidin-4-yl)thiazol-2-yl)oxy)cyclopentanol] | ≤ 100 | 100 to 1000 | ≤ 100
CCS(=O)(=O)N1CCC(Nc2ncc(C(F)(F)F)c(-c3cnc(C)s3)n2)CC1 [Example 45, N-(1-(Ethylsulfonyl)piperidin-4-yl)-4-(2-methylthiazol-5-yl)-5-(trifluoromethyl)pyrimidin-2-amine] | 100 to 1000 | 100 to 1000 | ≤ 100
Cc1ncc(-c2nc(NC3CCN(S(=O)(=O)C4CC4)CC3)ncc2C(F)(F)F)s1 [Example 46, N-(1-(Cyclopropylsulfonyl)piperidin-4-yl)-4-(2-methylthiazol-5-yl)-5-(trifluoromethyl)pyrimidin-2-amine] | 100 to 1000 | 100 to 1000 | ≤ 100

Second part, the compound after the results:

IC50 [1] [nM] | IC50 [2] [nM] | IC50 [3] [nM] | SMILES
≤ 100 | 100 to 1000 | ≤ 100 | CN(C)c1ncc(-c2nc(NC3CCN(S(C)(=O)=O)CC3)ncc2C(F)(F)F)s1 [Example 29, N,N-dimethyl-5-[2-[(1-methylsulfonylpiperidin-4-yl)amino]-5-(trifluoromethyl)pyrimidin-4-yl]-1,3-thiazol-2-amine]
≤ 100 | ≤ 100 | ≤ 100 | CC(O)C(C)Nc1ncc(-c2nc(NC3CCN(S(C)(=O)=O)CC3)ncc2C(F)(F)F)s1 (stereo not drawn) [Example 30, 3-[[5-[2-[(1-methylsulfonylpiperidin-4-yl)amino]-5-(trifluoromethyl)pyrimidin-4-yl]-1,3-thiazol-2-yl]amino]butan-2-ol]
≤ 100 | 100 to 1000 | ≤ 100 | CS(=O)(=O)N1CCC(Nc2ncc(C(F)(F)F)c(-c3cnc(NCCO)s3)n2)CC1 [Example 31, 2-[[5-[2-[(1-methylsulfonylpiperidin-4-yl)amino]-5-(trifluoromethyl)pyrimidin-4-yl]-1,3-thiazol-2-yl]amino]ethanol]
≤ 100 | 100 to 1000 | ≤ 100 | CCNc1ncc(-c2nc(NC3CCN(S(C)(=O)=O)CC3)ncc2C(F)(F)F)s1 [Example 32, N-ethyl-5-[2-[(1-methylsulfonylpiperidin-4-yl)amino]-5-(trifluoromethyl)pyrimidin-4-yl]-1,3-thiazol-2-amine]
≤ 100 | > 1000 | ≤ 100 | CN(c1ncc(-c2nc(NC3CCN(S(C)(=O)=O)CC3)ncc2C(F)(F)F)s1)C1CCCC1 [Example 33, N-cyclopentyl-N-methyl-5-(2-((1-(methylsulfonyl)piperidin-4-yl)amino)-5-(trifluoromethyl)pyrimidin-4-yl)thiazol-2-amine]
≤ 100 | 100 to 1000 | ≤ 100 | CN(c1ncc(-c2nc(NC3CCN(S(C)(=O)=O)CC3)ncc2C(F)(F)F)s1)[C@@H]1CCC[C@H]1O [Example 34, (1R,2R)-2-(methyl(5-(2-((1-(methylsulfonyl)piperidin-4-yl)amino)-5-(trifluoromethyl)pyrimidin-4-yl)thiazol-2-yl)amino)cyclopentan-1-ol]
≤ 100 | 100 to 1000 | ≤ 100 | CN(CCO)c1ncc(-c2nc(NC3CCN(S(C)(=O)=O)CC3)ncc2C(F)(F)F)s1 [Example 35, 2-(methyl(5-(2-((1-(methylsulfonyl)piperidin-4-yl)amino)-5-(trifluoromethyl)pyrimidin-4-yl)thiazol-2-yl)amino)ethan-1-ol]
≤ 100 | 100 to 1000 | ≤ 100 | CS(=O)(=O)N1CCC(Nc2ncc(C(F)(F)F)c(-c3cnc(NC4CC4)s3)n2)CC1 [Example 36, N-Cyclopropyl-5-[2-[(1-methylsulfonylpiperidin-4-yl)amino]-5-(trifluoromethyl)pyrimidin-4-yl]-1,3-thiazol-2-amine]
≤ 100 | 100 to 1000 | ≤ 100 | C[C@@]1(O)CCC[C@H]1Nc1ncc(-c2nc(NC3CCN(S(C)(=O)=O)CC3)ncc2C(F)(F)F)s1 [Example 37, (1R,2R)-1-Methyl-2-[[5-[2-[(1-methylsulfonylpiperidin-4-yl)amino]-5-(trifluoromethyl)pyrimidin-4-yl]-1,3-thiazol-2-yl]amino]cyclopentan-1-ol]
≤ 100 | 100 to 1000 | ≤ 100 | CS(=O)(=O)N1CCC(Nc2ncc(C(F)(F)F)c(-c3cnc(NC4COC4)s3)n2)CC1 [Example 38, 5-[2-[(1-Methylsulfonylpiperidin-4-yl)amino]-5-(trifluoromethyl)pyrimidin-4-yl]-N-(oxetan-3-yl)-1,3-thiazol-2-amine]
